Data: ChEMBL document CHEMBL3774360, “Potent multitarget FAAH-COX inhibitors: Design and structure-activity relationship studies” (Eur J Med Chem, 2016)
pIC50: −log10 of the molar value.

Experiments:
[1] = biological target: T1, Prostaglandin G/H synthase 1 (Ovis aries, UniProt P05979); assay: Inhibition of ovine COX1 assessed as production of PGF2-alpha preincubated with compound followed by the addition of 5 uM arachidonic acid as substrate by enzyme immunoassay
T1 sequence (P05979 whole entry): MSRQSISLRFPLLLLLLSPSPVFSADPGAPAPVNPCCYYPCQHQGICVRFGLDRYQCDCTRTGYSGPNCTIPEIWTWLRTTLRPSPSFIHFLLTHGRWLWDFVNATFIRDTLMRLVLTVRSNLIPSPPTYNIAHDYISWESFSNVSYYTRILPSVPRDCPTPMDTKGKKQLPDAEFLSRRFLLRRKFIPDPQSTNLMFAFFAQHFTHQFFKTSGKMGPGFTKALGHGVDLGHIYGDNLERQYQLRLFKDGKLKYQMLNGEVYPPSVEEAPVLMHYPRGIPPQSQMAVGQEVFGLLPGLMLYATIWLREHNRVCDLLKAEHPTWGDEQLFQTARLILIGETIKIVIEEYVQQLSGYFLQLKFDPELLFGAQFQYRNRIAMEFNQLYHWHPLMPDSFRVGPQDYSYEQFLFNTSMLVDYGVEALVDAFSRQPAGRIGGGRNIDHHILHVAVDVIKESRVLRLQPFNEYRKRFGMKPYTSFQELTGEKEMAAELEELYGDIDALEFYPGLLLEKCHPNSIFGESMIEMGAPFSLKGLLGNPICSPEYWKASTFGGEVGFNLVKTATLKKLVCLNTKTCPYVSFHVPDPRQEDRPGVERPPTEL

[2] = biological target: T2, Prostaglandin G/H synthase 2 (Homo sapiens, UniProt P35354); assay: Inhibition of recombinant human COX2 assessed as production of PGF2-alpha preincubated with compound followed by the addition of 5 uM arachidonic acid as substrate by enzyme immunoassay
T2 sequence (P35354 whole entry): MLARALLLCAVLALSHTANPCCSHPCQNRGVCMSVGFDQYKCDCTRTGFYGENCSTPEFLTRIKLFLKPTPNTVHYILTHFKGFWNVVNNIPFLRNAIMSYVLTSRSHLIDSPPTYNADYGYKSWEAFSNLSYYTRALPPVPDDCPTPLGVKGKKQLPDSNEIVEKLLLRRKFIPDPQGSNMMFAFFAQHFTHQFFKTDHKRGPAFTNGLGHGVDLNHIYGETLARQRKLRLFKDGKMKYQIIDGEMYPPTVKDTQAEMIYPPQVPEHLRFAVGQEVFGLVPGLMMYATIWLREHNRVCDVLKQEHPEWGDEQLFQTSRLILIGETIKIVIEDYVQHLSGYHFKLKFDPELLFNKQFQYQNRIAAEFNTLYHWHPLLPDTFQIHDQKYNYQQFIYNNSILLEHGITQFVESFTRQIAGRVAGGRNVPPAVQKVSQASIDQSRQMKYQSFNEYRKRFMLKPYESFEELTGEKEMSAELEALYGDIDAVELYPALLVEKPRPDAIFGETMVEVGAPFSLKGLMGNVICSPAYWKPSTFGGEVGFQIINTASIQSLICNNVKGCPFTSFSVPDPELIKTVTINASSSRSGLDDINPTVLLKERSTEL

[3] = biological target: T3, Fatty-acid amide hydrolase 1 (Rattus norvegicus, UniProt P97612); assay: Inhibition of FAAH in Sprague-Dawley rat brain homogenates preincubated for 10 mins followed by addition of substrate measured after 30 mins by liquid scintillation counting; assay type: tissue-based
T3 sequence (P97612 whole entry): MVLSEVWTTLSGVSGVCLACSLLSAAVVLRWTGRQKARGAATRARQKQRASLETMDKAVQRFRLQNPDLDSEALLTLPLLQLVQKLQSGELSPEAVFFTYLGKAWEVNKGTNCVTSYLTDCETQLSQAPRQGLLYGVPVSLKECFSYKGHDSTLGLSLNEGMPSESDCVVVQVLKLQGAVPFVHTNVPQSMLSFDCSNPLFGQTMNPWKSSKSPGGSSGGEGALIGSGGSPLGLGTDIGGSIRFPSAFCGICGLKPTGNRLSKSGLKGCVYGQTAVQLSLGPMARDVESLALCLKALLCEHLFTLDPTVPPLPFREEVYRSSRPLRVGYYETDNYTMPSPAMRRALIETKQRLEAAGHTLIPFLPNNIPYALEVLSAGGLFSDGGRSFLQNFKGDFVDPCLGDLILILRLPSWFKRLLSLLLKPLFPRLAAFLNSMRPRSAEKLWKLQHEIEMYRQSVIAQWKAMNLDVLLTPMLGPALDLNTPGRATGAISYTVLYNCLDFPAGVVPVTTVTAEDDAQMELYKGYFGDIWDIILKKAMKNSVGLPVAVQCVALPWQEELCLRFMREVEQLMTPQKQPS

Compound	pIC50 [1]	pIC50 [2]	pIC50 [3]
NC(=O)c1cccc(-c2cccc(OC(=O)NC3CCCCC3)c2)c1 [URB-597]	< 4.00	< 4.00	–
CCCCNC(=O)Oc1cccc(-c2ccc(C(C)C(=O)O)cc2F)c1 (racemic)	–	< 4.00	–
CCCCCCNC(=O)Oc1ccccc1-c1ccc(C(C)C(=O)O)cc1F (racemic)	–	< 4.00	–
CCCCCCNC(=O)Oc1cccc(-c2ccc(C)cc2F)c1	< 4.00	< 4.00	7.59
CCCCCCNC(=O)Oc1cccc(-c2ccc(C(C)C(=O)O)cc2O)c1 (racemic)	6.19	4.89	7.46
CCCNC(=O)Oc1cccc(-c2ccc(C(C)C(=O)O)cc2F)c1 (racemic)	5.78	< 4.00	< 4.00
CCCCCCNC(=O)Oc1cccc(-c2ccc(C(C)CO)cc2F)c1 (racemic)	–	< 4.00	8.52
CCCCCCCCNC(=O)Oc1cccc(-c2ccc(C(C)C(=O)O)cc2F)c1 (racemic)	–	–	8.52
CCCCCCNC(=O)Oc1cccc(-c2ccc(C(=O)O)cc2F)c1	< 4.00	< 4.00	7.07
CC(C(=O)O)c1ccc(-c2cccc(OC(=O)NCCc3ccccc3)c2)c(F)c1 (racemic)	–	< 4.00	–
CCCCCCNC(=O)Oc1cccc(-c2ccc(C(C)C(=O)O)cc2C(F)(F)F)c1 (racemic)	8.00	6.70	8.30
CCCCCCNC(=O)Oc1cccc(-c2ccc(C(C)C(=O)O)cc2)c1 (racemic)	7.27	6.16	8.52
CC(C(=O)O)c1ccc(-c2cccc(OC(=O)NC3CCCC3)c2)c(F)c1 (racemic)	–	< 4.00	–
CC(C(=O)O)c1ccc(-c2cccc(OC(=O)NCC3CCCCC3)c2)c(F)c1 (racemic)	–	< 4.00	–
CCCCCCNC(=O)Oc1cccc(-c2ccc(C(C)C(=O)O)cc2N)c1 (racemic)	6.66	4.92	7.31
CCCCCCNC(=O)Oc1cccc(-c2ccc(C(C)C(=O)O)cc2C)c1 (racemic)	7.96	5.85	8.00

Compound	pIC50 [1]	pIC50 [2]	pIC50 [3]
CC(C(=O)O)c1ccc(-c2cccc(OC(=O)Nc3ccccc3)c2)c(F)c1 (racemic)	6.57	5.57	4.39
CC(C)NC(=O)Oc1cccc(-c2ccc(C(C)C(=O)O)cc2F)c1 (racemic)	5.41	< 4.00	< 4.00
CC(C(=O)O)c1ccc(-c2cccc(OC(=O)NC3CC3)c2)c(F)c1 (racemic)	5.27	4.13	< 4.00
CC(C)CNC(=O)Oc1cccc(-c2ccc(C(C)C(=O)O)cc2F)c1 (racemic)	–	< 4.00	5.39
CC(C(=O)O)c1ccc(-c2cccc(OC(=O)NC3CCCCC3)c2)c(F)c1 (racemic)	–	< 4.00	–
CC(C(=O)O)c1ccc(-c2cccc(OC(=O)NCc3ccccc3)c2)c(F)c1 (racemic)	–	< 4.00	–
CCCCCCNC(=O)Nc1cccc(-c2ccc(C(C)C(=O)O)cc2F)c1 (racemic)	7.85	6.25	4.05
CCCCCCNC(=O)Oc1ccc(-c2ccc(C(C)C(=O)O)cc2F)cc1 (racemic)	< 4.00	< 4.00	7.17
CCCCCCNC(=O)Oc1cccc(-c2ccc(C(C)C(=O)OC)cc2F)c1 (racemic)	< 4.00	< 4.00	7.28
CC(C(=O)O)c1ccc(-c2cccc(OC(=O)NCCCCc3ccccc3)c2)c(F)c1 (racemic)	–	< 4.00	–
CC(C(=O)O)c1ccc(-c2ccccc2)c(F)c1 (stereo unspecified) [FLURBIPROFEN]	–	–	< 4.00
CCNC(=O)Oc1cccc(-c2ccc(C(C)C(=O)O)cc2F)c1 (racemic)	5.68	< 4.00	< 4.00
CCCCCCNC(=O)Oc1cccc(-c2ccc(C(C)C(=O)O)cc2[N+](=O)[O-])c1 (racemic)	6.89	6.03	8.05
CC(C(=O)O)c1ccc(-c2cccc(OC(=O)NC3CCC3)c2)c(F)c1 (racemic)	6.14	< 4.00	4.31
CCCCCCNC(=O)Oc1cccc(-c2ccc(C(C)C(=O)O)cc2Cl)c1 (racemic)	8.05	6.14	7.64
CCCCCCNC(=O)Oc1cccc(-c2ccc([C@@H](C)C(=O)O)cc2F)c1	5.40	–	–
